This note sets out measurements from patent US20260327224A1, “SUBSTITUTED PYRIDOTRIAZOLE COMPOUND, AND PREPARATION METHOD THEREFOR AND USE THEREOF” (ORIGIANT PHARMACEUTICAL CO., LTD., priority 2023, published 2026).

Assay [1] relates to HT-29 cells (colon cancer cells). In words: In vitro assay for protection of HT-29 cells from necroptosis (TNFα/Smac mimetic/Z-VAD-FMK, CCK-8). The conditions noted are these: Homo sapiens, Protective Activity Against Necroptosis, TNFα/Smac mimetic/Z-VAD-FMK induced, 24 h. The assay is classed as cell-based. In short, it runs like this: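 Cells seeded overnight received compound in triplicate, then were induced with TNFα/Smac mimetic/Z-VAD-FMK for 24 h. Viability was read by CCK-8 absorbance at 495 nm after 1-3 h; protection rate normalized to solvent and medium-only controls, EC50 from fitted curve.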

Another assay has as its target T1, RIPK1 kinase (Homo sapiens, UniProt Q13546).
T1 construct: Eurofins
T1 sequence (Q13546 1-671): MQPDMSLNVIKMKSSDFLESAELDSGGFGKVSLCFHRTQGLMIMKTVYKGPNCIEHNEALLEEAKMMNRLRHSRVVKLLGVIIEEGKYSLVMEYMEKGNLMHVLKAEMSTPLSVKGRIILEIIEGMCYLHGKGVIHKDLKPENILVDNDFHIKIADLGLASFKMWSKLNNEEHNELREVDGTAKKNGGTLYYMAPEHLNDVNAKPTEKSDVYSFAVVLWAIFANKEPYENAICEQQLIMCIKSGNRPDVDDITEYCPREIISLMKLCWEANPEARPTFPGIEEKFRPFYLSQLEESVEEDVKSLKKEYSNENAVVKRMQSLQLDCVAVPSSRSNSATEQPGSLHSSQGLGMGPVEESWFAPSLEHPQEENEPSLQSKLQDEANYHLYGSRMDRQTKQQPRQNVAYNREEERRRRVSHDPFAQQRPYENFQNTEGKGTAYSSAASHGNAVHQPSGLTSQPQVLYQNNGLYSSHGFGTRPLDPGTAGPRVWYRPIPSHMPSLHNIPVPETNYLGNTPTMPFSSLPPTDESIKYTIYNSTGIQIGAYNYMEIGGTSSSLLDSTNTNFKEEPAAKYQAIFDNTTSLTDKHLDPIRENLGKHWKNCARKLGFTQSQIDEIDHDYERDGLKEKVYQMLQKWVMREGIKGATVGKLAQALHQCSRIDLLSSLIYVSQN
As to the kind of experiment: In vitro RIPK1 kinase assay (Eurofins Kinase Profiler). The assay is classed as biochemical. The conditions noted are these: Inhibitory Activity Against RIPK1 Kinase.

Experimental for RIPK1 kinase: In Vitro RIPK1 Kinase Assay:
This assay was completed using the Kinase Profiler service provided by Eurofins. The experimental method was as follows: The small molecule compound to be tested (0.001-10 M) and the protein kinase to be tested were incubated with a buffer containing a substrate, 10 mM magnesium acetate, and [γ-^33P-ATP]. The reaction was initiated by adding a Mg\ATPmix. After incubation at room temperature for a period of time, a 3% phosphate solution was added to the buffer to terminate the reaction. Subsequently, 10 μL of the reaction mixture was quantitatively pipetted and dropped onto P30 filter paper. The paper was washed three times with 75 mM phosphate solution and once with methanol. After drying, scintillation fluid was added for scinticounting. The inhibitory activity of the compound was expressed as the half-maximal inhibitory concentration (IC50). The IC50 values were derived by fitting the inhibition rates corresponding to the respective concentration gradients.

As to `C[C@H](NC(=O)c1cn(C)c2ccc(-c3ccn4nc(NC(=O)CN5CCOCC5(C)C)nc4c3)cc12)c1ccc(F)cc1` [Compound 32], in assay [1], the EC50 is below 1 nM. The molecule further showed an IC50 at RIPK1 kinase of 10 to 100 nM.

As to `Cn1cc(C(=O)N[C@@H]2C[C@H]2c2ccc(F)c(F)c2)c2cc(-c3ccn4nc(NC(=O)[C@H]5CCCO5)nc4c3)ccc21` [Compound 184], the EC50 in assay [1] was in the range of 100 to 1000 nM.

Consider `Cn1cc(C(=O)N2CCC[C@H]2c2ccc(F)cc2)c2cc(-c3ccn4nc(NC(=O)C5CCOC5)nc4c3)ccc21` (some centres unmarked) [Compound 186], for which, in assay [1], the EC50 is below 1 nM.

Turning to `Cn1cc(C(=O)Nc2nc3cc(-c4ccc5c(c4)c(C(=O)N[C@@H](CF)c4ccc(F)cc4)nn5C)ccn3n2)cn1` [Compound 187], the EC50 in assay [1] was below 1 nM.

On to `Cn1nc(C(=O)N[C@@H](CF)c2ccc(F)cc2)c2cc(-c3ccn4nc(NC(=O)C5CCOC5)nc4c3)ccc21` (some centres unmarked) [Compound 188], for which the EC50 in assay [1] was below 1 nM.

As for `Cn1nc(C(=O)N[C@@H](CF)c2ccc(F)cc2)c2cc(-c3ccn4nc(NC(=O)N5CCOCC5)nc4c3)ccc21` [Compound 189], the EC50 in assay [1] is below 1 nM.

For the molecule `Cn1nc(C(=O)N[C@@H](CF)c2ccc(F)cc2)c2cc(-c3ccn4nc(NC(=O)C5CC5)nc4c3)ccc21` [Compound 190], the EC50 in assay [1] is below 1 nM.

Take `C[C@H](NC(=O)c1nn(C)c2ccc(-c3ccn4nc(NC(=O)c5cnn(C)c5)nc4c3)cc12)c1ccc(F)cc1` [Compound 191]: in assay [1], the EC50 is below 1 nM.

`C[C@H](NC(=O)c1nn(C)c2ccc(-c3ccn4nc(NC(=O)C5CC5)nc4c3)cc12)c1ccc(F)cc1` [Compound 192]: in assay [1], the 50% effective concentration (EC50) is below 1 nM.

`C[C@H](NC(=O)c1nn(C)c2ccc(-c3ccn4nc(NC(=O)[C@H]5CCCO5)nc4c3)cc12)c1ccc(F)cc1` [Compound 193]: the concentration for a half-maximal effect (EC50) in assay [1] was below 1 nM.

Turning to `C[C@H](NC(=O)c1nn(C)c2ccc(-c3ccn4nc(NC(=O)N5CCOCC5)nc4c3)cc12)c1ccc(F)cc1` [Compound 195], in assay [1], the EC50 is below 1 nM.

Consider `C[C@H](NC(=O)c1nn(C)c2ccc(-c3ccn4nc(NC(=O)CN5CCOCC5)nc4c3)cc12)c1ccc(F)cc1` [Compound 196], for which, in assay [1], the EC50 was below 1 nM.

Take `CC[C@H](NC(=O)c1cn(C)c2ccc(-c3ccn4nc(NC(=O)CN5CCOCC5)nc4c3)cc12)c1ccc(F)cc1` [Compound 197]: in assay [1], the EC50 was below 1 nM.

Take `CCn1cc(C(=O)N[C@@H](CF)c2ccc(F)cc2)c2cc(-c3ccn4nc(NC(=O)N5CCOCC5)nc4c3)ccc21` [Compound 200]: the EC50 in assay [1] was below 1 nM.

`CN(C(=O)c1cn(C)c2ccc(-c3ccn4nc(NC(=O)C5CC5)nc4c3)cc12)[C@H]1CCc2cc(F)ccc21` [Compound 205]: the EC50 in assay [1] is 1 to 10 nM.

In the case of `Cn1cc(C(=O)Nc2nc3cc(-c4ccc5c(c4)c(C(=O)N4CCC[C@H]4c4ccc(F)cc4)cn5C)ccn3n2)cn1` [Compound 207], in assay [1], the EC50 is below 1 nM.

For `CC(c1ccc(F)cc1)n1cnc(-c2cn(C)c3ccc(-c4ccn5nc(NC(=O)c6cnn(C)c6)nc5c4)cc23)n1` (centres unmarked) [Compound 208], the EC50 in assay [1] was 100 to 1000 nM.

Regarding `CC(c1ccc(F)cc1)n1cnc(-c2cn(C)c3ccc(-c4ccn5nc(NC(=O)C6CC6F)nc5c4)cc23)n1` (centres unmarked) [Compound 209], in assay [1], the EC50 was 100 to 1000 nM.

For the molecule `CC(c1ccc(F)cc1)n1cnc(-c2cn(C)c3ccc(-c4ccn5nc(NC(=O)C6CC6)nc5c4)cc23)n1` (centres unmarked) [Compound 210], the EC50 in assay [1] lay within 100 to 1000 nM.

Consider `Cn1cc(C2=NC(c3ccc(F)cc3)CO2)c2cc(-c3ccn4nc(NC(=O)C5CC5F)nc4c3)ccc21` (centres unmarked) [Compound 211], for which the concentration for a half-maximal effect (EC50) in assay [1] was in the range of 10 to 100 nM.

Regarding `Cn1cc(C2=NC(c3ccc(F)cc3)CO2)c2cc(-c3ccn4nc(NC(=O)C5CC5)nc4c3)ccc21` (centres unmarked) [Compound 212], in assay [1], the EC50 is 10 to 100 nM.

As to `Cn1cc(C(=O)Nc2nc3cc(-c4ccc5c(c4)c(C4=NC(c6ccc(F)cc6)CO4)cn5C)ccn3n2)cn1` (centres unmarked) [Compound 213], the half-maximal effective concentration (EC50) in assay [1] fell in the range of 10 to 100 nM.

For the molecule `COCCn1cc(C(=O)N[C@@H](CF)c2ccc(F)cc2)c2cc(-c3ccn4nc(NC(=O)N5CCOCC5)nc4c3)ccc21` [Compound 214], the EC50 in assay [1] lay in the range of 10 to 100 nM.

For `COCCn1cc(C(=O)N[C@@H](CF)c2ccc(F)cc2)c2cc(-c3ccn4nc(NC(=O)CC#N)nc4c3)ccc21` [Compound 215], in assay [1], the EC50 is 10 to 100 nM.

Turning to `COC(C)C(=O)Nc1nc2cc(-c3ccc4c(c3)c(-c3nncn3C(C)c3ccc(F)cc3)cn4C)ccn2n1` (centres unmarked) [Compound 216], the concentration giving a half-maximal response (EC50) in assay [1] fell in the range of 10 to 100 nM.

`CC(c1ccc(F)cc1)n1cnnc1-c1cn(C)c2ccc(-c3ccn4nc(NC(=O)C5CCOC5)nc4c3)cc12` (centres unmarked) [Compound 217]: the EC50 in assay [1] lay within 10 to 100 nM.

Consider `C[C@H](NC(=O)c1cn(C)c2ccc(-c3ccn4nc(N5CCOCC5=O)nc4c3)cc12)c1ccc(F)cc1` [Compound 218], for which the EC50 in assay [1] was in the range of 10 to 100 nM.

For the molecule `C[C@H](NC(=O)c1cn(C)c2ccc(-c3ccn4nc(N5CCOCC5)nc4c3)cc12)c1ccc(F)cc1` [Compound 219], in assay [1], the EC50 was in the range of 1 to 10 nM.

Usually EC50 stands for the concentration giving half of the maximal effect. The IC50 is the concentration that gives 50% inhibition. Higher therefore signals weaker potency.
